# Experiments:
# Human serum digests = type: in vitro ADME; details: reconstituted human serum, 37° C
# Protocol: Delipidated/lyophilized human serum was purchased from Thermo Scientific and reconstituted as per manufacturer's instructions. 250 nmoles of peptide in 50 μLs of sodium phosphate buffer (pH=8.0) with 10% DMSO was added to 1 mL of reconstituted serum and incubated at 37° C. 100 μL aliquots were taken at various time points and quenched in 300 μLs of acetonitrile. Samples were spun down and decanted to remove precipitate followed by dilution in water to 1.5 mLs. Samples were then analyzed by HPLC as described in the protease resistance experiment.
# Delipidated/lyophilized human serum was purchased from Thermo Scientific and reconstituted as per manufacturer's instructions. 250 nmoles of peptide in 50 μL of sodium phosphate buffer (pH=8.0) with 10% DMSO was added to 1 mL of reconstituted serum and incubated at 37° C. 100 μL aliquots were taken at various time points and quenched in 300 μL of acetonitrile. Samples were spun down and decanted to remove precipitate followed by dilution in water to 1.5 mLs.
# The human serum and human microsome stability of the Gαi1 binding SUPR peptide ([…] (SEQ ID NO: 7)) were compared to the peptides ability to bind to Her-2. Beginning with the human serum analysis, peptides were digested with 95% human serum at 37° C. Analysis was performed by HPLC. […] Therefore, intact peptide is only completely unmodified peptide. Digestions of SUPR, HMP, and PMP are show have lives very similar to SUPR. Digestion of PMP2 is in progress. Without being bound by theory, Applicants theorize that the fitting for HMP may have produced an artificially low half-life.
# proteinase K = proteinase K (Parengyodontium album, UniProt P06873)
# Chain of proteinase K (P06873 106-384): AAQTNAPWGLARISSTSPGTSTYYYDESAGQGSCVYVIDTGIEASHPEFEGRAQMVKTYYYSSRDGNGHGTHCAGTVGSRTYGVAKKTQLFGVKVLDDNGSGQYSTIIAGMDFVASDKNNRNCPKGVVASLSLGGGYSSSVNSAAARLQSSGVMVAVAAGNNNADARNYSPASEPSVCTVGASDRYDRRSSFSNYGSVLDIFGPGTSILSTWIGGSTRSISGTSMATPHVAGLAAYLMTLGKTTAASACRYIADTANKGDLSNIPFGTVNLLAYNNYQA
# Protocol: Immobilized chymotrypsin and proteinase K purchased from Sigma. 250 nmoles of peptide in DMSO were added to 50 mM sodium phosphate buffer (pH=8.0) with a final DMSO concentration of 2%. […] The graph was generated by fitting the data to a one phase exponential decay equation (GraphPad Prism 5.0).
# Protease resistance enhancement was then tested. The simplest solution for enhancing protease resistance would be the removal of amino acids recognized by protease K and chymotrypsin.
# Next the role of each of the N-methyl alanines was analyzed independently. […] For example sequence modifications, including N-methylation would be accomplished one amino acid at a time, walking the peptide from low protease stability to high stability. Whether this is a viable approach for making a peptide like SUPR was investigated. Towards that end, Applicants walked back from SUPR peptide to something closer to cycGIBP, and to determine if there was a gradual decrease in protease resistance. Towards that end, three peptides were synthesized. Two of them contained only one NMA (alanine was substituted for NMA), and the other had no NMA. It was hypothesized that if one could walk back to cycGIBP, then one would expect the loss of a single N-methyl to have some effect on reducing protease resistance, but to still be better than cycGIBP.
compound,measurement,setting,value
CSCC[C@@H]1NC(=O)CCCC(=O)NCCCC[C@@H](C(N)=O)NC(=O)[C@H](CO)NC(=O)[C@H](Cc2c[nH]c3ccccc23)NC(=O)[C@H](CCC(N)=O)NC(=O)[C@H](C)N(C)C(=O)[C@H](Cc2ccc(O)cc2)NC(=O)[C@H](CCC(=O)O)NC(=O)[C@H](Cc2ccc(O)cc2)NC(=O)[C@H](C)N(C)C(=O)[C@H](Cc2ccc(O)cc2)NC(=O)[C@H](Cc2ccccc2)NC1=O [cycSUPR],half-life,Human serum digests,160 h
same,fold more resistant to proteinase K,proteinase K,approximately 5200 fold
same,digest sites found from proteinase K,proteinase K; seven theoretical digest sites,1
